We go through 21 molecules from US9359297B2, “Spirolactam derivatives and uses of same” (H. Lundbeck A/S, priority 2009, dated 2016).

T1 sequence (P31424 21-1203): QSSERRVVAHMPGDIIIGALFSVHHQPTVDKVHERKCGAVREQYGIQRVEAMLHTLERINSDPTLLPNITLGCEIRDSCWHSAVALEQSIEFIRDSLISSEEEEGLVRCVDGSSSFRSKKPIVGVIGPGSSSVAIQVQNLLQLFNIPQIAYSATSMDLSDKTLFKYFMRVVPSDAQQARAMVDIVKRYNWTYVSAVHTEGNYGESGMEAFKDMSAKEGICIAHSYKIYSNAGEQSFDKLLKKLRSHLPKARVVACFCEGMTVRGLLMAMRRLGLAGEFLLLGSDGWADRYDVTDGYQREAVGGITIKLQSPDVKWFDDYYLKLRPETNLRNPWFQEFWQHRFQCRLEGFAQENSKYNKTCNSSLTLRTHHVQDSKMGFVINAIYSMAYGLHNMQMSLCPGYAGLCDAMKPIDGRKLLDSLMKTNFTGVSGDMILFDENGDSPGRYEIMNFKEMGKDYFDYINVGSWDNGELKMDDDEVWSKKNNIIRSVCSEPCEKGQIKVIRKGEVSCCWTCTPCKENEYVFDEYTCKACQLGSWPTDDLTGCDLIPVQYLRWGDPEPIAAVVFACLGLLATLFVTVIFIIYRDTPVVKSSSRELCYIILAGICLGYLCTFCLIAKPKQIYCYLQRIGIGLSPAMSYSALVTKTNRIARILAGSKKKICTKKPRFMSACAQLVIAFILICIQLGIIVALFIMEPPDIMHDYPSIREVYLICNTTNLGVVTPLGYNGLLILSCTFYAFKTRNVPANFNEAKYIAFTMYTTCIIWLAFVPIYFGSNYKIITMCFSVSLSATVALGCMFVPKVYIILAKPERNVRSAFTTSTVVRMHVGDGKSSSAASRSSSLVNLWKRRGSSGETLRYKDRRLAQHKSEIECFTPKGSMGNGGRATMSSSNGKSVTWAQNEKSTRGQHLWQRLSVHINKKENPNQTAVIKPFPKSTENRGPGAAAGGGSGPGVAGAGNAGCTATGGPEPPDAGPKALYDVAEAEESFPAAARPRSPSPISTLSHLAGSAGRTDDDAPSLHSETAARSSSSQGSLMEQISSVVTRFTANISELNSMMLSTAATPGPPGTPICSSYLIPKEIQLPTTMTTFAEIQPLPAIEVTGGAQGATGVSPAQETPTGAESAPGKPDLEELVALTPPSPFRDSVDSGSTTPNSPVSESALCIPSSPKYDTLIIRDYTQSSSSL

One assay concerns the target T1, rat metabotropic glutamate receptor 5 (rmGluR5) (Rattus norvegicus, UniProt P31424).
T1 construct: expressed in transfected cells
The assay is described as follows: Calcium mobilization (FLIPR) assay for negative allosteric modulation, EC80 glutamate, rmGluR5 in HEK 293. The format is cell-based. As to conditions: HEK293; rmGluR5, inhibition of EC80 glutamate response; read-out: FLIPR maximum inhibition. On the procedure: The cDNA for rat metabotropic glutamate receptor 5 (rmGluR5) and the cDNA for human metabotropic glutamate receptor 5 (hmGluR5) were generous gifts from S. Nakanishi (Kyoto University, Kyoto, Japan). The rmGluR5 or hmGluR5 was stably expressed in a HEK 293 cell line and grown in Dulbecco's Modified Eagle Medium (DMEM) (Invitrogen, Carlsbad, Calif.) with supplements (10% bovine calf serum, 4 mM glutamine, 100 units/mL penicillin, 100 μg/mL streptomycin and 0.75 mM G1418) at 37° C., 5% CO2. Twenty-four hours prior to assay, cells were seeded into 384-well black wall microtiter plates coated with poly-D-lysine. Just prior to assay, media was aspirated and cells dye-loaded (25 μL/well) with 3 μM Fluo-4/0.01% pluronic acid in assay buffer (Hank's Balanced Saline Solution (HBSS)): 150 mM NaCl, 5 mM KCl, 1 mM CaCl2, 1 mM MgCl2, plus 20 mM N-2-Hydroxyethylpiperazine-N′-2-ethanesulfonic acid (HEPES), pH 7.4, 0.1% bovine serum albumin (BSA) and 2.5 mM probenicid) for 1 hour in 5% CO2 at 37° C. After excess dye was discarded, cells were washed in assay buffer and layered with a final volume equal to 30 μL/well. Basal fluorescence is monitored in a fluorometric imaging plate reader (FLIPR) (Molecular Devices, Sunnyvale, Calif.) with an excitation wavelength of 488 nm and an emission range of 500 to 560 nm. Laser excitation energy was adjusted so that basal fluorescence readings were approximately 10,000 relative fluorescent units. Cells were stimulated with an EC20 or an EC80 concentration of glutamate in the presence of a compound to be tested, both diluted in assay buffer, and relative fluorescent units were measured at defined intervals (exposure=0.6 sec) over a 3 min period at room temperature. Basal readings derived from negative controls were subtracted from all samples. Maximum change in fluorescence was calculated for each well. Concentration-response curves derived from the maximum change in fluorescence were analyzed by nonlinear regression (Hill equation). A negative modulator can be identified from these concentration-response curves if a compound produces a concentration dependent inhibition of the EC80 glutamate response.
Turning to `O=C(N[C@H]1CCC[C@]2(CCN(c3cccc(Cl)c3)C2=O)C1)c1ccccn1` (racemic) [Example 2, cis-pyridine-2-carboxylic acid [2-(3-chloro-phenyl)-1-oxo-2-aza-spiro[4.5]dec-7-yl]-amide], the Emax lay within 81 to 99%. Still for that read-out and setting: in the case of `Cc1cccc(C(=O)N[C@H]2CCC[C@]3(CCN(c4cccc(Cl)c4)C3=O)C2)n1` (relative stereo) [Example 4, cis-6-Methyl-pyridine-2-carboxylic acid [2-(3-chloro-phenyl)-1-oxo-2-aza-spiro[4.5]dec-7-yl]-amide] it was 81 to 99%. The same measure, in the same setting: the result for `Cc1cccc(C(=O)N[C@H]2CCC[C@]3(CCN(c4cccc(C)n4)C3=O)C2)n1` (relative stereo) [Example 23, cis-6-Methyl-pyridine-2-carboxylic acid [2-(6-methyl-pyridin-2-yl)-1-oxo-2-aza-spiro[4.5]dec-7-yl]-amide] reads 81 to 99%; that for `Cc1cccc(C(=O)N[C@H]2CCC[C@]3(CCN(c4cccc(C#N)n4)C3=O)C2)n1` (relative stereo) [Example 43, cis-6-Methyl-pyridine-2-carboxylic acid [2-(6-cyano-pyridin-2-yl)-1-oxo-2-aza-spiro[4.5]dec-7-yl]-amide], 81 to 99%. Still for that read-out and setting: in the case of `Cc1cccc(C(=O)N[C@H]2CCC[C@]3(CCN(c4ccccc4)C3=O)C2)n1` (relative stereo) [Example 46, cis-6-Methyl-pyridine-2-carboxylic acid (1-oxo-2-phenyl-2-aza-spiro[4.5]dec-7-yl)-amide] it was 81 to 99%. With `Cc1cccc(N2CC[C@]3(CCC[C@H](NC(=O)c4cccc(C)n4)C3)C2=O)c1` (relative stereo) [Example 47, cis-6-Methyl-pyridine-2-carboxylic acid (1-oxo-2-m-tolyl-2-aza-spiro[4.5]dec-7-yl)-amide], the Emax was in the range of 81 to 99%.

Turning to `Cc1ccnc(N2CC[C@]3(CCC[C@H](NC(=O)c4cccc(C)n4)C3)C2=O)c1` (relative stereo) [Example 48, cis-6-Methyl-pyridine-2-carboxylic acid [2-(4-methyl-pyridin-2-yl)-1-oxo-2-aza-spiro[4.5]dec-7-yl]-amide], the Emax lay in the range of 81 to 99%. The same measure, in the same setting: in the case of `Cc1ccc(N2CC[C@]3(CCC[C@H](NC(=O)c4cccc(C)n4)C3)C2=O)nc1` (relative stereo) [Example 49, cis-6-Methyl-pyridine-2-carboxylic acid [2-(5-methyl-pyridin-2-yl)-1-oxo-2-aza-spiro[4.5]dec-7-yl]-amide] it was 81 to 99%; in that of `Cc1cccc(C(=O)N[C@H]2CCC[C@]3(CCN(c4ncccc4C)C3=O)C2)n1` (relative stereo) [Example 50, cis-6-Methyl-pyridine-2-carboxylic acid [2-(3-methyl-pyridin-2-yl)-1-oxo-2-aza-spiro[4.5]dec-7-yl]-amide], 81 to 99%. On the same count and under the same terms, the result for `Cc1cccc(C(=O)N[C@H]2CCC[C@]3(CCN(c4ccccc4F)C3=O)C2)n1` (relative stereo) [Example 51, cis-6-Methyl-pyridine-2-carboxylic acid [2-(2-fluoro-phenyl)-1-oxo-2-aza-spiro[4.5]dec-7-yl]-amide] reads 81 to 99%. Still for that read-out and setting: the result for `Cc1cc(N2CC[C@]3(CCC[C@H](NC(=O)c4cccc(C)n4)C3)C2=O)ccn1` (relative stereo) [Example 52, cis-6-Methyl-pyridine-2-carboxylic acid [2-(2-methyl-pyridin-4-yl)-1-oxo-2-aza-spiro[4.5]dec-7-yl]-amide] reads 81 to 99%; that for `N#Cc1cccc(N2CC[C@]3(CCC[C@H](NC(=O)c4cccc(F)c4)C3)C2=O)n1` (relative stereo) [Example 53, cis-N-[2-(6-Cyano-pyridin-2-yl)-1-oxo-2-aza-spiro[4.5]dec-7-yl]-3-fluoro-benzamide], 81 to 99%. As for `O=C(N[C@H]1CCC[C@]2(CCN(c3cc(F)cc(F)c3)C2=O)C1)c1ccccn1` (relative stereo) [Example 54, cis-Pyridine-2-carboxylic acid [2-(3,5-difluoro-phenyl)-1-oxo-2-aza-spiro [4.5]dec-7-yl]-amide], the Emax fell in the range of 81 to 99%. Still for that read-out and setting: in the case of `Cc1cncc(C(=O)N[C@H]2CCC[C@]3(CCN(c4cc(F)cc(F)c4)C3=O)C2)n1` (relative stereo) [Example 55, cis-6-Methyl-pyrazine-2-carboxylic acid [2-(3,5-difluoro-phenyl)-1-oxo-2-aza-spiro [4.5]dec-7-yl]-amide] it was 81 to 99%; in that of `O=C(N[C@H]1CCC[C@]2(CCN(c3cc(F)cc(F)c3)C2=O)C1)c1cnccn1` (relative stereo) [Example 56, cis-Pyrazine-2-carboxylic acid [2-(3,5-difluoro-phenyl)-1-oxo-2-aza-spiro [4.5]dec-7-yl]-amide], 81 to 99%. In the case of `Cc1nccc(C(=O)N[C@H]2CCC[C@]3(CCN(c4ccc(F)cn4)C3=O)C2)n1` (relative stereo) [Example 57, cis-2-Methyl-pyrimidine-4-carboxylic acid [2-(5-fluoro-pyridin-2-yl)-1-oxo-2-aza-spiro [4.5]dec-7-yl]-amide], the Emax lay within 81 to 99%. The same measure, in the same setting: the result for `O=C(N[C@H]1CCC[C@]2(CCN(c3cccc(Cl)c3)C2=O)C1)c1ccccn1` (single isomer, unassigned) [Example 6] reads 81 to 99%. The same measure, in the same setting: in the case of `O=C(N[C@H]1CCC[C@@]2(CCN(c3cccc(Cl)c3)C2=O)C1)c1ccccn1` [Example 1, trans-Pyridine-2-carboxylic acid [2-(3-chloro-phenyl)-1-oxo-2-aza-spiro[4.5]dec-7-yl]amide] it was 81 to 99%. In the case of `Cc1cccc(N2CCC3(CCCC(NC(=O)c4cccc(Cl)c4)C3)C2=O)n1` (stereo not drawn) [Example 8, 3-Chloro-N-[2-(6-methyl-pyridin-2-yl)-1-oxo-2-aza-spiro[4.5]dec-7-yl]-benzamide], the Emax lay within 81 to 99%. On the same count and under the same terms, in the case of `Cc1cccc(N2CC[C@@]3(CCC[C@@H](NC(=O)c4cccc(F)c4)C3)C2=O)n1` [Example 28, 3-Fluoro-N-[(5R,7R)-2-(6-methyl-pyridin-2-yl)-1-oxo-2-aza-spiro[4.5]dec-7-yl]-benzamide] it was 81 to 99%; in that of `Cc1cccc(C(=O)N[C@H]2CCC[C@]3(CCN(c4ccccn4)C3=O)C2)n1` [Example 45, 6-Methyl-pyridine-2-carboxylic acid (1-oxo-2-pyridin-2-yl-2-aza-spiro[4.5]dec-7-yl)-amide], 81 to 99%.

The next assay deals with mGluR5 (allosteric site, [3H]MPEP) (Homo sapiens, UniProt P41594). In words: [3H]MPEP radioligand filtration binding assay on membrane homogenates. The note with it: 5 nM [3H]MPEP; Ki from IC50 by Cheng and Prusoff equation. On the procedure: Binding assays were performed as described in [J. A. O'Brien et al. Mol. Pharmacol., 2003, 64, 731-740] with slight modifications. Briefly, after thawing, the membrane homogenates were resuspended in 50 mM Tris-HCl, 0.9% NaCl binding buffer at pH 7.4 to a final assay concentration of 40 μg protein/well for [^3H]2-methyl-6-phenylethynyl-pyridine ([^3H] MPEP) (American Radiolabeled Chemicals, Inc., St. Louis, Mo.) filtration binding. Incubations included 5 nM [^3H] MPEP, membranes and either buffer or varying concentrations of compound. Samples were incubated for 60 min at room temperature with shaking. Non-specific binding was defined with 10 μM MPEP. After incubation, samples were filtered over a GF/C filter (presoaked in 0.25% polyethyleneimine (PEI)) and then washed 4 times using a Tomtec® Harvester 96® Mach III cell harvester (Tomtec, Hamden, Conn.) with 0.5 mL ice-cold 50 mM Tris-HCl (pH 7.4).
mGluR5 (allosteric site, [3H]MPEP), sequence (P41594 21-1212): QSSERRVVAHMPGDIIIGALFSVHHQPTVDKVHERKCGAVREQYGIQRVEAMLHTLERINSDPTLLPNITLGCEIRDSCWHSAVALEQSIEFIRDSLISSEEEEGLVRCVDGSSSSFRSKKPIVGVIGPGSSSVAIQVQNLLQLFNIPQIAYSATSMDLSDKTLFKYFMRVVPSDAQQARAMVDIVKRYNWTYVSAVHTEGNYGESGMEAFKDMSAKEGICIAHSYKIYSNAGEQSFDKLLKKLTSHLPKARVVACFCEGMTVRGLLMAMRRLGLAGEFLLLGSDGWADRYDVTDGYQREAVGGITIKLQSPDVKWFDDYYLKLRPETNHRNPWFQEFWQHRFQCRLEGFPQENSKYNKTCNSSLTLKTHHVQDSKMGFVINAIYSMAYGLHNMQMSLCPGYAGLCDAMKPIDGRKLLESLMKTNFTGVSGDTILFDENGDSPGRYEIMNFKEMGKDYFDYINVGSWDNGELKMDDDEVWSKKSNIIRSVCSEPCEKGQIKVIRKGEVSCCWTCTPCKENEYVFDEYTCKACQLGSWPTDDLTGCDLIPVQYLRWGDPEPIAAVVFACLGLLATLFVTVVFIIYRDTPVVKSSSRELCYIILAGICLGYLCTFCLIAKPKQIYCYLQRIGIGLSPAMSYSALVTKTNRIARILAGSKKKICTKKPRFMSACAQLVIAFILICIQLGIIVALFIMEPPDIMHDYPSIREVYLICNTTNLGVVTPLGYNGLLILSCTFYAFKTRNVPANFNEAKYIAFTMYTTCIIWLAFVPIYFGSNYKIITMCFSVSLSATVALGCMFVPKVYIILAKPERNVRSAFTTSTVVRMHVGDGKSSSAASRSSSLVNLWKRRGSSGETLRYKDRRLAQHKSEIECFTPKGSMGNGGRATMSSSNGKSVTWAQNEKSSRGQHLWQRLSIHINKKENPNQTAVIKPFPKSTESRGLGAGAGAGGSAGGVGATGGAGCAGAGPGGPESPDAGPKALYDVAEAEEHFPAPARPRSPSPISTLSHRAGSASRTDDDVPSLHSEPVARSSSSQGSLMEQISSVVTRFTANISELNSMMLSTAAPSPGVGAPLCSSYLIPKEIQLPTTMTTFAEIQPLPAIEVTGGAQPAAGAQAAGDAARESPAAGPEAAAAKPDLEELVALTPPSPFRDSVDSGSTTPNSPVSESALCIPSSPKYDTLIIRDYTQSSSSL
IC50 values were derived from the inhibition curve and Ki values were calculated according to the Cheng and Prusoff equation of Ki=IC50/(1+[L]/Kd) described in [Y. Cheng and W. H. Prusoff Biochem. Pharmacol. 1973, 22, 3099-3108] where [L] is the concentration of radioligand and Kd is its dissociation constant at the receptor, derived from the saturation isotherm.
The Ki is the dissociation constant of the complex between target and ligand, obtained from inhibition or displacement. Low values mean tighter binding, high ones weaker binding. Molecule `O=C(N[C@H]1CCC[C@]2(CCN(c3cccc(Cl)c3)C2=O)C1)c1ccccn1` (racemic) [Example 2, cis-pyridine-2-carboxylic acid [2-(3-chloro-phenyl)-1-oxo-2-aza-spiro[4.5]dec-7-yl]-amide] returned a Ki of 250 nM.

In turn, `Cc1cccc(C(=O)N[C@H]2CCC[C@]3(CCN(c4cccc(Cl)c4)C3=O)C2)n1` (relative stereo) [Example 4, cis-6-Methyl-pyridine-2-carboxylic acid [2-(3-chloro-phenyl)-1-oxo-2-aza-spiro[4.5]dec-7-yl]-amide] had an inhibition constant Ki of 74 nM. `Cc1cccc(C(=O)N[C@H]2CCC[C@]3(CCN(c4cccc(C)n4)C3=O)C2)n1` (relative stereo) [Example 23, cis-6-Methyl-pyridine-2-carboxylic acid [2-(6-methyl-pyridin-2-yl)-1-oxo-2-aza-spiro[4.5]dec-7-yl]-amide] yielded a Ki of 190 nM.
